PubChem BioAssay (NCI)
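Step 1: Grow cells in 96-well plates. Step 2: Expose to compound for 48 hours at 5 concentrations. Step 3: Interpolate endpoints linearly; if unreached, use highest concentration. GI50 = concentration required for 50% inhibition of growth. TGI marks complete inhibition of growth.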

Experiments:
Test in all cases: DTP human tumour cell line panel, 48 h
[1] = tested on: UO-31 renal
[2] = tested on: MALME-3M melanoma
[3] = tested on: RXF 393 renal
[4] = tested on: SNB-75 CNS
[5] = tested on: PC-3 prostate
[6] = tested on: SF-539 CNS
[7] = tested on: COLO 205 colon
[8] = tested on: MCF7 breast
[9] = tested on: BT-549 breast
[10] = tested on: NCI-H522 lung

| Structure (SMILES) | TGI [1] [µM] | TGI [2] [µM] | TGI [3] [µM] | TGI [4] [µM] | TGI [5] [µM] | TGI [6] [µM] | TGI [7] [µM] | TGI [8] [µM] | TGI [9] [µM] | TGI [10] [µM] | GI50 [2] [µM] | GI50 [3] [µM] | GI50 [4] [µM] | GI50 [5] [µM] | GI50 [7] [µM] | GI50 [9] [µM] |
| --- | --- | --- | --- | --- | --- | --- | --- | --- | --- | --- | --- | --- | --- | --- | --- | --- |
| Cc1[nH]c2nccn2c(=O)c1CCO | > 10 | > 10 | > 10 | > 10 | > 10 | > 10 | > 10 | > 10 | > 10 | – | – | – | – | – | – | – |
| O=S(=O)(/N=C(\NO)Nc1ccc(Cl)cc1)c1cc2ccccc2s1 | 48.7 | 29.6 | 36 | 29.8 | 27.7 | 40.2 | 29.6 | – | 31.6 | 27.2 | – | – | – | – | – | – |
| CCCCCCCCCCCC[N+]12CC[N+](C)(CC1)CC2 | > 100 | > 100 | 3.34 | 37.1 | – | > 100 | 16.9 | – | – | 46 | – | – | – | – | – | – |
| NC(=O)/N=C/c1c(O)c2ccccc2oc1=O | > 100 | – | 82.4 | – | – | > 100 | > 100 | – | – | – | – | – | – | – | – | – |
| CC#COS(=O)(=O)c1ccc(C)cc1 | > 100 | > 100 | – | – | – | > 100 | > 100 | – | – | > 100 | – | – | – | – | – | – |
| CN(C)CCCn1c(Cn2nc3ccccc3n2)nc2cc(C(F)(F)F)ccc21 | 73.2 | 24.4 | > 100 | – | > 100 | – | 28.6 | 64.7 | > 100 | 31.2 | – | – | – | – | – | – |
| Cc1ccc(NC(=O)C2C3CCC(O3)C2C(=O)O)cc1 (stereo not drawn) | > 100 | > 100 | 48.6 | > 100 | – | > 100 | > 59.8 | – | – | > 100 | – | – | – | – | – | – |
| CC(=O)OCC1OC(N=[N+]=[N-])C(OC(C)=O)C(OC(C)=O)C1OC1OC(COC(C)=O)C(OC(C)=O)C(OC(C)=O)C1OC(C)=O (stereo not drawn) | > 100 | > 100 | > 100 | 60.8 | – | > 100 | > 100 | – | – | > 100 | – | – | – | – | – | – |
| COc1ccc([C@H]2CC3C(=O)N(c4ccc(OC)cc4)C(=O)C3c3[nH]c4ccccc4c32)cc1 (stereo partly drawn) | > 100 | > 100 | – | 83.7 | – | 51.6 | > 100 | – | – | > 100 | – | – | – | – | – | – |
| Cn1c(=O)c2[nH]c(SC/C(=N/O)c3ccc(Br)cc3)nc2n(C)c1=O | – | 5.22 | 3.76 | 5.07 | > 100 | – | > 100 | – | 7.36 | – | 2.4 | 2.05 | 2.04 | > 100 | > 100 | 2.55 |
| CSC(C1c2ccccc2N(C)c2[nH]c(=O)n(C)c(=O)c21)S(=O)(=O)c1ccc(C)cc1 (stereo not drawn) | > 100 | > 100 | – | > 100 | – | > 100 | > 100 | – | – | 46.6 | – | – | – | – | – | – |
| O=C(CC(C(=O)c1cccs1)c1ccsc1)c1ccc(Cl)s1 (stereo not drawn) | > 100 | > 100 | – | > 100 | > 100 | > 100 | > 100 | > 100 | – | – | – | – | – | – | – | – |
| O=S(=O)(c1ccccc1)c1ccc(-c2nc(-c3ccc4c(c3)Sc3ccccc3S4)cs2)cc1 | > 100 | > 100 | 35.3 | 25.3 | > 100 | > 100 | > 100 | > 100 | 91.7 | – | – | – | – | – | – | – |
| COc1ccc2[nH]c3c(c2c1)CC(=O)N1CCC[C@H](C1)CC31OCCCO1 | > 100 | > 100 | > 100 | > 100 | > 100 | – | > 100 | > 100 | > 100 | – | – | – | – | – | – | – |
| Brc1ccc(-c2cc3c(cc2C2SCCS2)OCO3)cc1 | 90.4 | > 100 | 77.2 | 39.9 | – | 39.1 | > 100 | – | – | 40.9 | – | – | – | – | – | – |
| CCOC(=O)c1nc2cc(Cl)ccc2[nH]c1=O | > 100 | > 100 | > 100 | – | > 100 | > 100 | > 100 | > 100 | > 100 | > 100 | – | – | – | – | – | – |
| COc1ccc(C2=Nc3ccccc3N=C(SC)C2)cc1 | > 100 | > 100 | > 100 | > 100 | – | > 100 | > 100 | – | – | 63.2 | – | – | – | – | – | – |
| Cn1cc2c3ccccc3nc-2c2ccccc21 | 2.92 | 5.78 | – | 6.6 | 5.78 | 3.66 | 3.07 | 10 | 14.7 | 3.18 | – | – | – | – | – | – |
| CCCCCCCCCCCCOC1C(COCCN2CCCCC2)OC2OC(C)(C)OC21 (stereo not drawn) | 3.22 | 3.28 | 3.4 | – | 3.8 | 3.18 | 3.03 | 3.23 | 5.8 | 2.97 | – | – | – | – | – | – |
| COc1ccc(C2=NNC(=O)c3ccccc3N2c2nc(-c3cccs3)nc3cc(OC)c(OC)cc23)cc1 | 25 | 6.92 | – | 14.1 | > 100 | 8.56 | > 100 | 9 | 6.63 | 88 | – | – | – | – | – | – |
| COc1ccccc1C(=O)OCC1CCCN2CCCCC12 (stereo not drawn) | > 100 | > 100 | 73.6 | 63.4 | > 100 | > 100 | > 100 | > 100 | 54.6 | – | – | – | – | – | – | – |
| CCOC(=O)c1cc(C)nc2c1c(=O)n(-c1ccccc1)c(=O)n2CCCCN1CCN(c2ncccn2)CC1 | > 100 | > 100 | > 100 | > 100 | > 100 | – | > 100 | > 100 | > 100 | > 100 | – | – | – | – | – | – |
| CN(C)S(=O)(=O)c1nc(Cl)c2[nH]cnc2n1 | > 100 | > 100 | > 100 | > 100 | > 100 | – | > 100 | > 100 | > 100 | > 100 | – | – | – | – | – | – |
| O=C(O)c1nn(-c2ccccc2)nc1-c1nn(-c2ccccc2)nc1C(=O)O | > 100 | > 100 | > 100 | – | > 100 | > 100 | > 100 | > 100 | – | – | – | – | – | – | – | – |
